Like-named read-outs stand apart in the source and are kept apart here.
Assay: tissue concentrations after intraperitoneal injection into a live rat
Type: in vivo
Settings: ip, 6 mg i.p.
[1] = blood, read-out: Concentration of compound 188 in tissue samples (μM) blood
[2] = brain, read-out: Concentration of compound 188 in tissue samples (μM) brain
[3] = skeletal muscle, read-out: Concentration of compound 188 in tissue samples (μM) muscle
[4] = kidney, read-out: Concentration of compound 188 in tissue samples (μM) kidney
[5] = liver, read-out: Concentration of compound 188 in tissue samples (μM) liver
[6] = lung, read-out: Concentration of compound 188 in tissue samples (μM) lung
[7] = myocardium, read-out: Concentration of compound 188 in tissue samples (μM) myocardium
[8] = spleen, read-out: Concentration of compound 188 in tissue samples (μM) spleen
[9] = urine, read-out: Concentration of compound 188 in tissue samples (μM) urine

O=C1c2ccsc2N=C2N(c3ccc(N4CCOCC4)cc3)CCC12O (stereo not drawn) [Compound 188, 9-Hydroxy-12-[4-(morpholin-4-yl)phenyl]-4-thia-2,12-diazatricyclo[7.3.0.0^3,7]dodeca-1,3(7),5-trien-8-one]
concentration at 5 min [1]: 12 µM
concentration at 15 min [1]: 16 µM
concentration at 30 min [1]: 12 µM
concentration at 45 min [1]: 10 µM
concentration at 60 min [1]: 8 µM
concentration at 5 min [2]: 25 µM
concentration at 15 min [2]: 45 µM
concentration at 30 min [2]: 36 µM
concentration at 45 min [2]: 17 µM
concentration at 60 min [2]: 5 µM
concentration at 5 min [3]: 22 µM
concentration at 15 min [3]: 48 µM
concentration at 30 min [3]: 69 µM
concentration at 45 min [3]: 78 µM
concentration at 60 min [3]: 74 µM
concentration at 5 min [4]: 29 µM
concentration at 15 min [4]: 56 µM
concentration at 30 min [4]: 20 µM
concentration at 45 min [4]: 12 µM
concentration at 60 min [4]: 3 µM
concentration at 5 min [5]: 30 µM
concentration at 15 min [5]: 18 µM
concentration at 30 min [5]: 12 µM
concentration at 45 min [5]: 9 µM
concentration at 60 min [5]: 3 µM
concentration at 5 min [6]: 25 µM
concentration at 15 min [6]: 36 µM
concentration at 30 min [6]: 22 µM
concentration at 45 min [6]: 9 µM
concentration at 60 min [6]: 4 µM
concentration at 5 min [7]: 36 µM
concentration at 15 min [7]: 48 µM
concentration at 30 min [7]: 26 µM
concentration at 45 min [7]: 18 µM
concentration at 60 min [7]: 9 µM
concentration at 5 min [8]: 37 µM
concentration at 15 min [8]: 28 µM
concentration at 30 min [8]: 11 µM
concentration at 45 min [8]: 5 µM
concentration at 60 min [8]: 3 µM
concentration at 5 min [9]: 58 µM
concentration at 15 min [9]: 77 µM
concentration at 30 min [9]: 72 µM
concentration at 45 min [9]: 63 µM
concentration at 60 min [9]: 21 µM

From patent US12421243B2, “Pharmaceutically effective compounds inhibiting selectively the myosin 2 isoforms” (PRINTNET KERESKEDELMI ÉS SZOLGÁLTATÓ KFT., priority 2018, dated 2025)
